From US20230302150A1, “ANTIBODY-TLR AGONIST CONJUGATES, METHODS AND USES THEREOF” (Ambrx, Inc., priority 2020, published 2023)
Where two headings read alike, the source gives them in different places.

Legend:
[1] = test system: SKBR3 HER2 high expressing tumor cell line / RAW-Blue cells; assay: RAW-Blue co-culture assay with SKBR3 tumor cells (HER2 ISACs); type: cell-based, human
Procedure: (§1) RAW-Blue™ cells (Invivogen, San Diego, CA) were co-cultured with human tumor cells with different levels of HER2 expression level at 1:1 E:T ratio with total number of 1 million cells per well in the 96 wells plate. Different concentration of small molecule TLR7 agonist and conjugated ISACs, (Immune Stimulating Antibody Conjugates), were added to the co-culture cell medium. After 24 h incubation, the levels of NF-kB-induced SEAP from the RAW-Blue™ cells were determined by Quanti-Blue detection reagents (Invivogen, San Diego, CA) with readings at OD 655 nm. The dose-response curves were generated using Prism Software.

hTLR7 = target: T1, hTLR7 (Homo sapiens, UniProt Q9NYK1); assay: HEK-Blue hTLR7 reporter assay (NF-kB-induced SEAP, Quanti-Blue); type: cell-based
T1 construct: expressed in transfected cells; host or cells: HEK-Blue hTLR7 reporter cell line
T1 sequence (Q9NYK1 27-1049): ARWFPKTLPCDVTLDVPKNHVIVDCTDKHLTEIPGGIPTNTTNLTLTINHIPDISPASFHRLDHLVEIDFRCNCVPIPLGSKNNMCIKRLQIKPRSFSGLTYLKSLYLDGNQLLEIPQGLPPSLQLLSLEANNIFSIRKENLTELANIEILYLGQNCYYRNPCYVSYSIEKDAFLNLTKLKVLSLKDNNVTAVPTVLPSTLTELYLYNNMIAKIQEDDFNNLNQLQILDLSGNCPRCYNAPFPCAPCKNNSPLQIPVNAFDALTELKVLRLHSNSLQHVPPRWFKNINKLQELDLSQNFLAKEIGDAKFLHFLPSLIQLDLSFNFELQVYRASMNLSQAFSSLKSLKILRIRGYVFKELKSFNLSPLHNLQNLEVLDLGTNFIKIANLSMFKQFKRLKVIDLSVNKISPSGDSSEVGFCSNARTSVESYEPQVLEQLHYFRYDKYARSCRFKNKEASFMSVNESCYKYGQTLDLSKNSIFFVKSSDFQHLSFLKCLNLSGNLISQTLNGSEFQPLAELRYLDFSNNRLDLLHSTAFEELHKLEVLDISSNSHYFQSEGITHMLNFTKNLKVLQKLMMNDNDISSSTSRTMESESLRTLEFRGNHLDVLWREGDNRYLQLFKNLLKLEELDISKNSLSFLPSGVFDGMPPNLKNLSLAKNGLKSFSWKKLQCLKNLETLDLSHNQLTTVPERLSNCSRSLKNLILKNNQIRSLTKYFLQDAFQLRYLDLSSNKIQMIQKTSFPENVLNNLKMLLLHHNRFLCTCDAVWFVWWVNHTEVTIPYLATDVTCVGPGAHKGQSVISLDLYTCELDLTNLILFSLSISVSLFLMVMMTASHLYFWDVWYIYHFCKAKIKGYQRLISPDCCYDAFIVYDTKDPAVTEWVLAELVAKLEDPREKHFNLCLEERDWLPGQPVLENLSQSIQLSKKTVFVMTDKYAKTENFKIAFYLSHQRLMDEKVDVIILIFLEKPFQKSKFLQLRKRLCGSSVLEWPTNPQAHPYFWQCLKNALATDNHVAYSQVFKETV
Procedure: HEK-Blue™ hTLR7 cells were incubated in HEK-Blue™ Detection medium and stimulated with increasing concentrations of TLR7 or TLR8 or TLR7/8 agonists. […] The EC50 was determined from dose-response curve using Prism Software.

[2] = test system: SKOV3 HER2 high expressing tumor cell line / RAW-Blue cells; assay: RAW-Blue co-culture assay with SKOV3 tumor cells; type: cell-based, human; settings: conjugated to anti-HER2 antibody; data not shown
Procedure: as §1

TLR8 = target: T2, TLR8 (Homo sapiens, UniProt Q9NR97); assay: TLR8 reporter assay; type: cell-based
T2 sequence (Q9NR97 27-1041): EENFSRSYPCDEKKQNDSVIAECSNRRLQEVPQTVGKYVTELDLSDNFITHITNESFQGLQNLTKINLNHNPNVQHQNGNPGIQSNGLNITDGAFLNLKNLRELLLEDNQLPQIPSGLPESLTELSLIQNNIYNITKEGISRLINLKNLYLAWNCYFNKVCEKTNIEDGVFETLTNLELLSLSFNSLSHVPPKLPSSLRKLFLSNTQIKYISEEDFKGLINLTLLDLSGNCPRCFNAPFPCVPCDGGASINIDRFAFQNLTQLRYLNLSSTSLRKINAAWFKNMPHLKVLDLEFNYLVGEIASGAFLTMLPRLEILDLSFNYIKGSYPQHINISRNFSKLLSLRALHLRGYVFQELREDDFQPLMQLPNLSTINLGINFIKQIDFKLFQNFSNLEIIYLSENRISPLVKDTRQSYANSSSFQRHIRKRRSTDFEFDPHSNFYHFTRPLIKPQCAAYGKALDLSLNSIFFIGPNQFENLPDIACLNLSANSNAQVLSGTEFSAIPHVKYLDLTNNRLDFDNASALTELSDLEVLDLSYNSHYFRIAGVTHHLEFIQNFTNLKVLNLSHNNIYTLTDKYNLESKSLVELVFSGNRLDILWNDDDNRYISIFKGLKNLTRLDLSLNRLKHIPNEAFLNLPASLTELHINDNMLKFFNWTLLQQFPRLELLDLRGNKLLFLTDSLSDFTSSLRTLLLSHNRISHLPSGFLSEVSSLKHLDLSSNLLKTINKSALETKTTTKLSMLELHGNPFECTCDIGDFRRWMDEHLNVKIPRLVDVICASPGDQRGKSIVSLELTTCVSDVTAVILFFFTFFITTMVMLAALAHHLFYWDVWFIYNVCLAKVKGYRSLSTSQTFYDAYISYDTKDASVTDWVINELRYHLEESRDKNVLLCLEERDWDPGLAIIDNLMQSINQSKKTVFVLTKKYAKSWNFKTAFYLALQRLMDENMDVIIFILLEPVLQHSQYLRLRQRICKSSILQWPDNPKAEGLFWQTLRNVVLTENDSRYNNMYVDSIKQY

Row | SMILES | tumor dependent ISAC activity [1] | EC50 (hTLR7; Table 12, TLR7 agonists attached to a linker, read-out: TLR Agonist Payload + Linkers EC50) [µM] | EC50 (hTLR7; Table 15, drug linker, read-out: TLR Agonist + Linker (DL) - EC50) [µM] | EC50 (hTLR7; Table 15, pAF containing final metabolite, read-out: TLR Agonist + Linker + nnAA (DL-pAF) - EC50) [µM] | EC50 (hTLR7; Table 19, TLR7, drug-linkers with PEG shielding, read-out: EC50) [µM] | tumor dependent ISAC activity [2] | EC50 (TLR8) [µM] | EC50 (hTLR7; Table 11, TLR7 activities, read-out: EC50) [µM] | EC50 (hTLR7; text to Table 11, TLR7, read-out: EC50) [µM]
1 | CCCCOc1nc(N)c2[nH]c(=O)n(Cc3ccc(CNC(=O)CCOCCON)cc3)c2n1 [AXC-863] | potent dose dependent activities only in the presence of HER2 high expressing tumor cell lines | 0.864 | 0.864 | 0.287 | 0.32 | potent dose dependent activities only in the presence of HER2 high expressing tumor cell lines | – | – | –
2 | CCCCOc1nc(N)c2[nH]c(=O)n(Cc3ccc(CN4CCC(CCNC(=O)c5cc(F)c(N)c(F)c5)CC4)cc3)c2n1 [AXC-887, 4-amino-N-(2-(1-(4-((6-amino-2-butoxy-8-oxo-7H-purin-9(8H)-yl)methyl)benzyl)piperidin-4-yl)ethyl)-3,5-difluorobenzamide] | – | – | – | – | – | – | 3.73 | 0.0046 | < 0.01
3 | CCCN(CCC)C(=O)C1=Cc2ccc(-c3ccc(C(=O)N4CCCC4)cc3)cc2N=C(N)C1 [Motolimod, reference compound] | – | – | – | – | – | – | 1.43 | – | –
